According to the kinase profiling compilation of Christmann-Franck et al. (2016):

Experiments:
Test in all cases: radiometric filter-binding kinase assay, Kinase HotSpot
Details in all cases: compound 0.5 µM; ATP 10 µM
ALK (human) = ALK (human) (UniProt Q9UM73)
BTK (human) = BTK (human) (UniProt Q06187)
CAMKK1 (human) = CAMKK1 (human) (UniProt Q8N5S9)
CDK2 CCNA2 (human) = CDK2 CCNA2 (human) (UniProt P24941+P20248)
CDK4 CCND3 (human) = CDK4 CCND3 (human) (UniProt P30281+P11802)
CDK6 CCND1 (human) = CDK6 CCND1 (human) (UniProt Q00534+P24385)
CDK6 CCND3 (human) = CDK6 CCND3 (human) (UniProt P30281+Q00534)
CLK3 (human) = CLK3 (human) (UniProt P49761)
CSNK1E (human) = CSNK1E (human) (UniProt P49674)
EPHA1 (human) = EPHA1 (human) (UniProt P21709)
EPHA8 (human) = EPHA8 (human) (UniProt P29322)
FES (human) = FES (human) (UniProt P07332)
FGFR1 (human) = FGFR1 (human) (UniProt P11362)
FGFR2 (human) = FGFR2 (human) (UniProt P21802)
FGFR3 (human) = FGFR3 (human) (UniProt P22607)
FGFR4 (human) = FGFR4 (human) (UniProt P22455)
FLT3 (human) = FLT3 (human) (UniProt P36888)
MAP3K2 (human) = MAP3K2 (human) (UniProt Q9Y2U5)
MAP3K3 (human) = MAP3K3 (human) (UniProt Q99759)
MAP3K5 (human) = MAP3K5 (human) (UniProt Q99683)
MAP3K7 TAB1 (human) = MAP3K7 TAB1 (human) (UniProt O43318+Q15750)
MAP3K8 (human) = MAP3K8 (human) (UniProt P41279)
MAP4K2 (human) = MAP4K2 (human) (UniProt Q12851)
MAPK13 (human) = MAPK13 (human) (UniProt O15264)
MAPK14 (human) = MAPK14 (human) (UniProt Q16539)
MLTK (human) = MLTK (human) (UniProt Q9NYL2)
NTRK2 (human) = NTRK2 (human) (UniProt Q16620)
PAK4 (human) = PAK4 (human) (UniProt O96013)
PIM3 (human) = PIM3 (human) (UniProt Q86V86)
PLK1 (human) = PLK1 (human) (UniProt P53350)
PRKCD (human) = PRKCD (human) (UniProt Q05655)
PRKCG (human) = PRKCG (human) (UniProt P05129)
PRKCH (human) = PRKCH (human) (UniProt P24723)
PRKG2 (human) = PRKG2 (human) (UniProt Q13237)
PRKX (human) = PRKX (human) (UniProt P51817)
RET (human) = RET (human) (UniProt P07949)
RIPK2 (human) = RIPK2 (human) (UniProt O43353)
RPS6KB2 (human) = RPS6KB2 (human) (UniProt Q9UBS0)
SRC (human) = SRC (human) (UniProt P12931)
SYK (human) = SYK (human) (UniProt P43405)
TBK1 (human) = TBK1 (human) (UniProt Q9UHD2)
ULK1 (human) = ULK1 (human) (UniProt O75385)
Sequence of ULK1 (human) (O75385 whole entry, looked up): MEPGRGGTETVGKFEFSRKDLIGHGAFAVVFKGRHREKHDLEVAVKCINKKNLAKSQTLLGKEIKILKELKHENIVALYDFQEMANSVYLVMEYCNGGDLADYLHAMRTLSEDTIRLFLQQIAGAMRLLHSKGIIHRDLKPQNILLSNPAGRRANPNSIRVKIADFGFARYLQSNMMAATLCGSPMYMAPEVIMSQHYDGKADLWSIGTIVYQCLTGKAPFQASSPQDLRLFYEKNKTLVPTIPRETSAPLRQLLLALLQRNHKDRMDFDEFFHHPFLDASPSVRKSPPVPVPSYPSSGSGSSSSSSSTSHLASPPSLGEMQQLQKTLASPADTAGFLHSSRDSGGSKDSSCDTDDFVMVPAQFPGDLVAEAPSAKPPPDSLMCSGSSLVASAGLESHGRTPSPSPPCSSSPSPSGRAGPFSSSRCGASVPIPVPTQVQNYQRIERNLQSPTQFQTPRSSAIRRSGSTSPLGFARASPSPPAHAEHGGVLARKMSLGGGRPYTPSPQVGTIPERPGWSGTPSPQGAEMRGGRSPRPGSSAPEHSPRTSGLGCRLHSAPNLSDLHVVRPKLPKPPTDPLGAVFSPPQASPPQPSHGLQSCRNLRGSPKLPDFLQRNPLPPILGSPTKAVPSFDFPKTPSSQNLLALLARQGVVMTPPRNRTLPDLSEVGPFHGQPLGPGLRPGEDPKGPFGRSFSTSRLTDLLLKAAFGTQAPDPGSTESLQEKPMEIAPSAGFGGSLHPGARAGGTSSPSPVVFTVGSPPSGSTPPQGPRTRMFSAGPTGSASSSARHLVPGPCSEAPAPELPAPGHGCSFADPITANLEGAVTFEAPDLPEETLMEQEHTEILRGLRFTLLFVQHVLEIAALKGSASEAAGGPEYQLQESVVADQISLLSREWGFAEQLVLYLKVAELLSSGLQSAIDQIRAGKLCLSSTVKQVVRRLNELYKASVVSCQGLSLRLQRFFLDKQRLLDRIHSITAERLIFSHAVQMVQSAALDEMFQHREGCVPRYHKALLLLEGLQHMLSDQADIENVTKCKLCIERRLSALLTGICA

Sequence of MAP3K5 (human) (Q99683 whole entry, looked up): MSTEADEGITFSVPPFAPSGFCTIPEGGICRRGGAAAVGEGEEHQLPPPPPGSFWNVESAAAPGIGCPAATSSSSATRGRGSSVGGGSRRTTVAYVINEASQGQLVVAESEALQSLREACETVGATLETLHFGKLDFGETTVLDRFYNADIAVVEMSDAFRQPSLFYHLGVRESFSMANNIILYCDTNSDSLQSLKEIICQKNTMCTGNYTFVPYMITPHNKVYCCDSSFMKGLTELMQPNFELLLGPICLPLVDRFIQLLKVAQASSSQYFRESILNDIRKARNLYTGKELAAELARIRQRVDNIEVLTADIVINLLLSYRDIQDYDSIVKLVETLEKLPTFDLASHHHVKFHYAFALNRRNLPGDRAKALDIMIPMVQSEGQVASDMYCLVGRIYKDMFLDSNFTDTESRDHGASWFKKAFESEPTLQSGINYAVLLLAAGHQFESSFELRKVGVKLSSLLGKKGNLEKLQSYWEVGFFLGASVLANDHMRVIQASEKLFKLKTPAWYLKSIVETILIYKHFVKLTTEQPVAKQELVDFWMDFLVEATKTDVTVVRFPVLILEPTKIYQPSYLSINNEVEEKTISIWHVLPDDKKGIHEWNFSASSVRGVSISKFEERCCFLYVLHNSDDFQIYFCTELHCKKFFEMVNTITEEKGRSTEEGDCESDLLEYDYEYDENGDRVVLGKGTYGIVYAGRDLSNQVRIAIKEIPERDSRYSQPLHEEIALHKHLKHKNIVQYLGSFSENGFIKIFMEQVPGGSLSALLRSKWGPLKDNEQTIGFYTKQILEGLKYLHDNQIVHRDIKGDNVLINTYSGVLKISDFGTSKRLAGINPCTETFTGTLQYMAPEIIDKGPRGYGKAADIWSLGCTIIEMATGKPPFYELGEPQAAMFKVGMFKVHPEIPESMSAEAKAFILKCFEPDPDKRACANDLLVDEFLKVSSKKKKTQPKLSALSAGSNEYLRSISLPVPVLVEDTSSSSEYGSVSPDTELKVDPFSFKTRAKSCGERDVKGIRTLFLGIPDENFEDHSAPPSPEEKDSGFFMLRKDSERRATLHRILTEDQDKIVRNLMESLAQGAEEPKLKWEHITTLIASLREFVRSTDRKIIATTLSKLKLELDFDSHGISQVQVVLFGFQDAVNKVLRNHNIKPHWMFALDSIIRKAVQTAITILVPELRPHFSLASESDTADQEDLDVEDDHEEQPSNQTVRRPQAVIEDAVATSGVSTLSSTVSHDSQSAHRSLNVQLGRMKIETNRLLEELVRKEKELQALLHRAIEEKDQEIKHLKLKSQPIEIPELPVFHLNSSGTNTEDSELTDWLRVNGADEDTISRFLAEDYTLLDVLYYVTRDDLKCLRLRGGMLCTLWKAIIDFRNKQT
Sequence of CDK2 CCNA2 (human) (P20248 whole entry, looked up, other chains not shown): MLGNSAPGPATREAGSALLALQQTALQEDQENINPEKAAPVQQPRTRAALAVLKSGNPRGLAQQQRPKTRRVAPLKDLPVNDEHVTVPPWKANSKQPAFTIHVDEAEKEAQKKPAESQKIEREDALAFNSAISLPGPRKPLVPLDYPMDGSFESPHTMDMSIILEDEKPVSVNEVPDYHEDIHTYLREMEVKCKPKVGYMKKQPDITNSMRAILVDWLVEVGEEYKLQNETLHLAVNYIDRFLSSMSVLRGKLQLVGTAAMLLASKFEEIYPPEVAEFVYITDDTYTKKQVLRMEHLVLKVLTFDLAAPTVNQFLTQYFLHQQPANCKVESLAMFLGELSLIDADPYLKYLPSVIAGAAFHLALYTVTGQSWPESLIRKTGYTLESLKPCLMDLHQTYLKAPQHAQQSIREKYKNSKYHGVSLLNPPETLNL
Sequence of FGFR3 (human) (P22607 whole entry, looked up): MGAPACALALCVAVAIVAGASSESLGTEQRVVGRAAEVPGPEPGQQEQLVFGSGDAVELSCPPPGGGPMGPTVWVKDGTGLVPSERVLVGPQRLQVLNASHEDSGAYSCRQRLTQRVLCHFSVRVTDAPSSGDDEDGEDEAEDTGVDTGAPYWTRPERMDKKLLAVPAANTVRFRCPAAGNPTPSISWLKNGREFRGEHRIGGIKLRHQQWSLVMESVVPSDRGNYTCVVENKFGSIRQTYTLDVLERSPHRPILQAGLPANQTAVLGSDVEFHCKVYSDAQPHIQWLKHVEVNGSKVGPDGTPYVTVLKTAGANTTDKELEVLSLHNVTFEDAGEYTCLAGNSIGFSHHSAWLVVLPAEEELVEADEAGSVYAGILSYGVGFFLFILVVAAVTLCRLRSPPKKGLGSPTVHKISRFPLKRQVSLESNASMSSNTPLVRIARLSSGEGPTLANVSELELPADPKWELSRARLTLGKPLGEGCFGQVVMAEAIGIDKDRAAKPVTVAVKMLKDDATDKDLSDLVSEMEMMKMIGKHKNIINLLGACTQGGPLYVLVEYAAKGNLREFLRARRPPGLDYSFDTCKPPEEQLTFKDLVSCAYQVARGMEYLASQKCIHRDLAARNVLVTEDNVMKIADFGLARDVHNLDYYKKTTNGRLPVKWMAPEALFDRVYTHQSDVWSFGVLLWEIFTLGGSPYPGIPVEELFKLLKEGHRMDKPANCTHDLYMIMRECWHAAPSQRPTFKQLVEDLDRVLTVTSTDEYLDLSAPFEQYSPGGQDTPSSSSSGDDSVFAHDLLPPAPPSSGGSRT
Sequence of FGFR2 (human) (P21802 whole entry, looked up): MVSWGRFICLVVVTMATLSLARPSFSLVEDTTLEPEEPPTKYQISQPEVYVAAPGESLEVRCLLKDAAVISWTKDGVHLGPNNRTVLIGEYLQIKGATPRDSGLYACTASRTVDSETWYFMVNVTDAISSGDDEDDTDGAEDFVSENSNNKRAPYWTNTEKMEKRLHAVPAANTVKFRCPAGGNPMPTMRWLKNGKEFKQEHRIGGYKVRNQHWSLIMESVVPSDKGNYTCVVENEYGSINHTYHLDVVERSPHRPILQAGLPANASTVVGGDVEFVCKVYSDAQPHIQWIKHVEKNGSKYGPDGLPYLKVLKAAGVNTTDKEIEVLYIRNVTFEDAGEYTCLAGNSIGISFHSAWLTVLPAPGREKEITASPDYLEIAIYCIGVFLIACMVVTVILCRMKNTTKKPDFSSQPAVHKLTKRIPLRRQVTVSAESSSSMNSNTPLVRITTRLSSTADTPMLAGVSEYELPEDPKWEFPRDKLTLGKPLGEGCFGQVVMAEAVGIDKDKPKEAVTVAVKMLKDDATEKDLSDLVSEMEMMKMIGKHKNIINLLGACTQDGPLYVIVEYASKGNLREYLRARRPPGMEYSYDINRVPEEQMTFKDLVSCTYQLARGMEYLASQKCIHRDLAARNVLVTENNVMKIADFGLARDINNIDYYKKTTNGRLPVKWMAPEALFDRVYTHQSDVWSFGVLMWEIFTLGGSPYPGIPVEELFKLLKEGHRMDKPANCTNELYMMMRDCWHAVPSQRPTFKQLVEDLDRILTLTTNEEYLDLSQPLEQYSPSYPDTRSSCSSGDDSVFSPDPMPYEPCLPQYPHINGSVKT
Sequence of CDK4 CCND3 (human) (P11802 whole entry, looked up): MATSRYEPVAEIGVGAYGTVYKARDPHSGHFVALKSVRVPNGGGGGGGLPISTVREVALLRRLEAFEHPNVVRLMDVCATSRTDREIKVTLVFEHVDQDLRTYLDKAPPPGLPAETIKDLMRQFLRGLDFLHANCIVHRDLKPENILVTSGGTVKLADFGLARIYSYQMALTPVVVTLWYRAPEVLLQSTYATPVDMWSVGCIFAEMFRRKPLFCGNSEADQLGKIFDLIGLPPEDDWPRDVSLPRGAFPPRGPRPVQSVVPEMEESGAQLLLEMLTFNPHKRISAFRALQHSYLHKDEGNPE
Sequence of CDK4 CCND3 (human) (P30281 whole entry, looked up): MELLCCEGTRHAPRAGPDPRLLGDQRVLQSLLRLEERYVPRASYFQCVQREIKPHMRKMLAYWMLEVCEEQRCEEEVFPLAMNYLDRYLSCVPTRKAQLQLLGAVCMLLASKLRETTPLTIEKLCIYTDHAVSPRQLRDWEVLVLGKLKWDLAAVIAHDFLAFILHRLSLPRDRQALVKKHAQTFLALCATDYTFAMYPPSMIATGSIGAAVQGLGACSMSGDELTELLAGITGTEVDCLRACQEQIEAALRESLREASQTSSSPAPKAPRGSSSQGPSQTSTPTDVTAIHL

SMILES: O=C1NC(=O)c2c1c1c3ccccc3[nH]c1n1cncc21
- residual activity (ALK (human)): 84.6%
- residual activity (BTK (human)): 83.9%
- residual activity (CAMKK1 (human)): 63.5%
- residual activity (CDK2 CCNA2 (human)): 75.9%
- residual activity (CDK4 CCND3 (human)): 87.1%
- residual activity (CDK6 CCND1 (human)): 65.7%
- residual activity (CDK6 CCND3 (human)): 74.3%
- residual activity (CLK3 (human)): 48.2%
- residual activity (CSNK1E (human)): 18.9%
- residual activity (EPHA1 (human)): 72.4%
- residual activity (EPHA8 (human)): 97.5%
- residual activity (FES (human)): 117%
- residual activity (FGFR1 (human)): 55.2%
- residual activity (FGFR2 (human)): 91.3%
- residual activity (FGFR3 (human)): 85%
- residual activity (FGFR4 (human)): 78.6%
- residual activity (FLT3 (human)): 9.86%
- residual activity (MAP3K2 (human)): 97.9%
- residual activity (MAP3K3 (human)): 86.9%
- residual activity (MAP3K5 (human)): 97.8%
- residual activity (MAP3K7 TAB1 (human)): 63.4%
- residual activity (MAP3K8 (human)): 100%
- residual activity (MAP4K2 (human)): 51.8%
- residual activity (MAPK13 (human)): 107%
- residual activity (MAPK14 (human)): 101%
- residual activity (MLTK (human)): 78.7%
- residual activity (NTRK2 (human)): 49%
- residual activity (PAK4 (human)): 97.1%
- residual activity (PIM3 (human)): 4.48%
- residual activity (PLK1 (human)): 50.8%
- residual activity (PRKCD (human)): 65%
- residual activity (PRKCG (human)): 117%
- residual activity (PRKCH (human)): 74.8%
- residual activity (PRKG2 (human)): 64.1%
- residual activity (PRKX (human)): 87.8%
- residual activity (RET (human)): 42%
- residual activity (RIPK2 (human)): 67.5%
- residual activity (RPS6KB2 (human)): 74.7%
- residual activity (SRC (human)): 88.4%
- residual activity (SYK (human)): 84.9%
- residual activity (TBK1 (human)): 81.9%
- residual activity (ULK1 (human)): 97.2%

SMILES: N#Cc1c[nH]c2c[nH]/c(=N\Cc3cccnc3)cc2/c1=N\c1ccc(F)c(Cl)c1
- residual activity (ALK (human)): 107%
- residual activity (BTK (human)): 98.3%
- residual activity (CAMKK1 (human)): 105%
- residual activity (CDK2 CCNA2 (human)): 75.1%
- residual activity (CDK4 CCND3 (human)): 101%
- residual activity (CDK6 CCND1 (human)): 92.2%
- residual activity (CDK6 CCND3 (human)): 88.8%
- residual activity (CLK3 (human)): 96.7%
- residual activity (CSNK1E (human)): 81.8%
- residual activity (EPHA1 (human)): 94.5%
- residual activity (EPHA8 (human)): 91.2%
- residual activity (FES (human)): 108%
- residual activity (FGFR1 (human)): 83.4%
- residual activity (FGFR2 (human)): 103%
- residual activity (FGFR3 (human)): 91.7%
- residual activity (FGFR4 (human)): 92.6%
- residual activity (FLT3 (human)): 83.6%
- residual activity (MAP3K2 (human)): 81.2%
- residual activity (MAP3K3 (human)): 75%
- residual activity (MAP3K5 (human)): 106%
- residual activity (MAP3K7 TAB1 (human)): 89.5%
- residual activity (MAP3K8 (human)): 79.1%
- residual activity (MAP4K2 (human)): 72.2%
- residual activity (MAPK13 (human)): 101%
- residual activity (MAPK14 (human)): 115%
- residual activity (MLTK (human)): 106%
- residual activity (NTRK2 (human)): 101%
- residual activity (PAK4 (human)): 85.4%
- residual activity (PIM3 (human)): 85%
- residual activity (PLK1 (human)): 92.6%
- residual activity (PRKCD (human)): 95.2%
- residual activity (PRKCG (human)): 111%
- residual activity (PRKCH (human)): 117%
- residual activity (PRKG2 (human)): 90.9%
- residual activity (PRKX (human)): 101%
- residual activity (RET (human)): 107%
- residual activity (RIPK2 (human)): 85.3%
- residual activity (RPS6KB2 (human)): 99.5%
- residual activity (SRC (human)): 92.6%
- residual activity (SYK (human)): 94.4%
- residual activity (TBK1 (human)): 83.4%
- residual activity (ULK1 (human)): 76.1%

SMILES: c1ccc2c(-c3ccncc3)c[nH]c2c1
- residual activity (ALK (human)): 106%
- residual activity (BTK (human)): 104%
- residual activity (CAMKK1 (human)): 122%
- residual activity (CDK2 CCNA2 (human)): 99.7%
- residual activity (CDK4 CCND3 (human)): 102%
- residual activity (CDK6 CCND1 (human)): 97.6%
- residual activity (CDK6 CCND3 (human)): 101%
- residual activity (CLK3 (human)): 92.6%
- residual activity (CSNK1E (human)): 100%
- residual activity (EPHA1 (human)): 105%
- residual activity (EPHA8 (human)): 101%
- residual activity (FES (human)): 105%
- residual activity (FGFR1 (human)): 92.7%
- residual activity (FGFR2 (human)): 105%
- residual activity (FGFR3 (human)): 98.9%
- residual activity (FGFR4 (human)): 84.6%
- residual activity (FLT3 (human)): 91.5%
- residual activity (MAP3K2 (human)): 94.9%
- residual activity (MAP3K3 (human)): 103%
- residual activity (MAP3K5 (human)): 109%
- residual activity (MAP3K7 TAB1 (human)): 95.5%
- residual activity (MAP3K8 (human)): 99%
- residual activity (MAP4K2 (human)): 101%
- residual activity (MAPK13 (human)): 123%
- residual activity (MAPK14 (human)): 104%
- residual activity (MLTK (human)): 102%
- residual activity (NTRK2 (human)): 107%
- residual activity (PAK4 (human)): 96.7%
- residual activity (PIM3 (human)): 103%
- residual activity (PLK1 (human)): 102%
- residual activity (PRKCD (human)): 83.2%
- residual activity (PRKCG (human)): 99.4%
- residual activity (PRKCH (human)): 84.9%
- residual activity (PRKG2 (human)): 38.3%
- residual activity (PRKX (human)): 54.3%
- residual activity (RET (human)): 97.3%
- residual activity (RIPK2 (human)): 89.9%
- residual activity (RPS6KB2 (human)): 97.8%
- residual activity (SRC (human)): 100%
- residual activity (SYK (human)): 98.6%
- residual activity (TBK1 (human)): 93.4%
- residual activity (ULK1 (human)): 83.8%

SMILES: O=C(c1cc2cc(O)ccc2[nH]1)c1cc2cc(O)ccc2[nH]1
- residual activity (ALK (human)): 97%
- residual activity (BTK (human)): 86.8%
- residual activity (CAMKK1 (human)): 63.3%
- residual activity (CDK2 CCNA2 (human)): 61.5%
- residual activity (CDK4 CCND3 (human)): 105%
- residual activity (CDK6 CCND1 (human)): 81.2%
- residual activity (CDK6 CCND3 (human)): 50.3%
- residual activity (CLK3 (human)): 24.8%
- residual activity (CSNK1E (human)): 88.4%
- residual activity (EPHA1 (human)): 81.1%
- residual activity (EPHA8 (human)): 92.9%
- residual activity (FES (human)): 95.3%
- residual activity (FGFR1 (human)): 86.5%
- residual activity (FGFR2 (human)): 98.5%
- residual activity (FGFR3 (human)): 92.1%
- residual activity (FGFR4 (human)): 92.8%
- residual activity (FLT3 (human)): 3.53%
- residual activity (MAP3K2 (human)): 102%
- residual activity (MAP3K3 (human)): 96%
- residual activity (MAP3K5 (human)): 89.6%
- residual activity (MAP3K7 TAB1 (human)): 79.5%
- residual activity (MAP3K8 (human)): 93%
- residual activity (MAP4K2 (human)): 67.1%
- residual activity (MAPK13 (human)): 108%
- residual activity (MAPK14 (human)): 103%
- residual activity (MLTK (human)): 34.3%
- residual activity (NTRK2 (human)): 37%
- residual activity (PAK4 (human)): 111%
- residual activity (PIM3 (human)): 98.9%
- residual activity (PLK1 (human)): 101%
- residual activity (PRKCD (human)): 89.7%
- residual activity (PRKCG (human)): 85.1%
- residual activity (PRKCH (human)): 76.3%
- residual activity (PRKG2 (human)): 80.6%
- residual activity (PRKX (human)): 94.5%
- residual activity (RET (human)): 8.98%
- residual activity (RIPK2 (human)): 37.8%
- residual activity (RPS6KB2 (human)): 102%
- residual activity (SRC (human)): 36.4%
- residual activity (SYK (human)): 72%
- residual activity (TBK1 (human)): 35%
- residual activity (ULK1 (human)): 60.1%
